How the values were obtained:
Experiment in all cases: normalised response (% of control), CellTox Green; higher = less cell death (100 = DMSO, 0 = benzethonium chloride kill control)
Conditions in all cases: incubation time: 72 h
[1] = system: BT-474
Procedure, shortened: (§1)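 CellTox Green fluorescence (485/520 nm) and, after 10 min at room temperature, CellTiter-Glo luminescence were read from breast cancer cell lines incubated 72 h in 384-well plates. Cells were seeded as 20 µl suspension onto compound at 5 concentrations in 10-fold steps over a 10,000-fold range chosen per compound. Each plate was normalised to 0.1 % DMSO (100) and a positive kill control (0). Values are normalised signals, one per concentration.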

[2] = system: BT-549
Procedure, shortened: as §1

[3] = system: CAL-120
Procedure, shortened: as §1

[4] = system: CAL-51
Procedure, shortened: as §1

[5] = system: CAL-85-1
Procedure, shortened: as §1

[6] = system: DU-4475
Procedure, shortened: as §1

[7] = system: HCC1143
Procedure, shortened: as §1

[8] = system: HCC1937
Procedure, shortened: as §1

[9] = system: HDQ-P1
Procedure, shortened: as §1

[10] = system: Hs578T
Procedure, shortened: as §1

[11] = system: MCF-10A
Procedure, shortened: as §1

[12] = system: MDA-MB-436
Procedure, shortened: as §1

[13] = system: MDA-MB-453
Procedure, shortened: as §1

[14] = system: MDA-MB-468
Procedure, shortened: as §1

[15] = system: MFM-223
Procedure, shortened: as §1

[16] = system: MDA-MB-231
Procedure, shortened: as §1

Structure (SMILES)	normalised response [1]	normalised response [2]	normalised response [3]	normalised response [4]	normalised response [5]	normalised response [6]	normalised response [7]	normalised response [8]	normalised response [9]	normalised response [10]	normalised response [11]	normalised response [12]	normalised response [13]	normalised response [14]	normalised response [15]	normalised response [16]
O=NN(CCCl)C(=O)NC1CCCCC1 [Lomustine] (10000 nM)	95.2%	93.2%	92.5%	108%	108%	98.9%	108%	57.4%	98.9%	113%	88.2%	86.5%	100%	77.9%	103%	
O=C(O)CC[C@H]1CC[C@@](c2cc(F)ccc2F)(S(=O)(=O)c2ccc(Cl)cc2)CC1 [MK-0752] (1000 nM)	104%	107%	102%	118%	70.6%	104%	88.8%	104%	110%	91.9%	114%	96.9%		106%	57.7%	111%
NC(=O)c1cccc2cn(-c3ccc([C@@H]4CCCNC4)cc3)nc12 [MK-4827] (1000 nM)	101%	134%	98.5%	82.8%	95.6%	97.8%	81.1%	104%		113%	111%	86.7%	106%	110%	101%	120%
NC(=O)c1cccc2cn(-c3ccc([C@@H]4CCCNC4)cc3)nc12 [MK-4827] (10000 nM)	97.5%	103%	97.3%	63.6%	70.3%	89.2%	127%		97.9%	118%	94.8%	105%	105%	116%	98.7%	139%
O=C(c1cc(Cc2n[nH]c(=O)c3ccccc23)ccc1F)N1CCN(C(=O)C2CC2)CC1 [Olaparib] (1000 nM)	92.9%	124%	97%	89.5%	102%	99.7%	93.3%	109%	71.5%	83.4%	101%	60.6%	112%	122%		100%
CO[C@H](C(=O)[C@@H](O)[C@@H](C)O)[C@@H]1Cc2cc3cc(O[C@H]4C[C@@H](O[C@@H]5C[C@@H](O)[C@H](O)[C@@H](C)O5)[C@H](O)[C@@H](C)O4)c(C)c(O)c3c(O)c2C(=O)[C@H]1O[C@H]1C[C@@H](O[C@@H]2C[C@@H](O)[C@@H](O[C@@H]3C[C@](C)(O)[C@H](O)[C@@H](C)O3)[C@@H](C)O2)[C@H](O)[C@@H](C)O1 [Plicamycin] (1000 nM)	100%	107%	103%	94.9%	99.3%	104%	81.6%	104%	97.8%	106%	86.6%		104%		81.3%	106%
C[C@]12C=CC(=O)C=C1CC[C@@H]1[C@@H]2C(=O)C[C@@]2(C)[C@H]1CC[C@]2(O)C(=O)CO [Prednisone] (10000 nM)	101%	99.6%	-48.9%	109%	91.9%	103%	118%	98.8%	114%		104%	107%	100%	99.5%	100%	114%
CC/C(=C(\c1ccccc1)c1ccc(OCCN(C)C)cc1)c1ccccc1 [Tamoxifen] (1000 nM)	101%	94%	102%	99.5%	101%	105%	122%			89.4%	111%	108%	110%	148%	74.9%	103%
CC/C(=C(\c1ccccc1)c1ccc(OCCN(C)C)cc1)c1ccccc1 [Tamoxifen] (10000 nM)	9.58%	86.1%	83.5%	105%		91.1%	108%	3.06%	105%	74.1%	81.5%		35.6%	7.06%	88%	13.6%
COc1cc2c(N3CCN(C(=O)Nc4ccc(OC(C)C)cc4)CC3)ncnc2cc1OCCCN1CCCCC1 [Tandutinib] (100 nM)	96.3%	129%	97.3%	96.4%	110%	98%	93.2%	112%		91.6%	108%	94.2%	106%	134%	100%	105%
C[C@@H](C(=O)O)c1ccc(-c2ccccc2)c(F)c1 [Tarenflurbil] (1000 nM)	97.1%	108%	100%	114%	87.9%	96.6%	105%	115%	65.7%		91.4%	60.6%	102%	112%	87.5%	
CC[C@@H]1C(=O)N(C)c2cnc(Nc3ccc(C(=O)N[C@H]4CC[C@H](N5CCN(CC6CC6)CC5)CC4)cc3OC)nc2N1C(C)C [Volasertib] (100 nM)	94.5%	79%	89%	46.4%	57%	93.2%	81.8%		-27.2%	61%	24.1%	64.2%	98%	85.1%	53.5%	-0.74%
